“And” between values parts separate entries of the source, which are not always exact repeats. Identical values can stand only once. Like-named read-outs stand apart in the source and are kept apart here.
Experiments:
[1] = test system: HEK293 cells; assay: GFP expression in HEK293 cells infected with yf2AAV9-CMV-AcGFP in the presence of sucrose; settings: Exp 1, yf2AAV9-CMV-AcGFP 2×10^9 vg/well, 3 days
Description: (§1) To the culture cells of (b) above, 6×10^7 to 5×10^8 vg/well of AAV3B-CMV-AcGFP expressing GFP described in Item (a) above was added, or 2×10^9 vg/well of yf2AAV9-CMV-AcGFP was added, and then the cells were cultured for 3 to 6 days.
(§2) The fluorescence intensity of GFP was measured using a plate reader (BioTek Japan) and comparison thereof was made. Further, the images of typical view fields were taken using the fluorescence microscope (Olympus IX83).
On a 96 well Optical bottom plate (ThermoFisher), 5×10^4 cells/well of HEK293 cells were seeded, and the next day, either 2×10^8 vg/well of AAV3B-CMV-AcGFP or 2×10^9 vg/well of yf2AAV9-CMV-AcGFP was added thereto. […] To a sucrose (−) control, the same amount of the medium as that of the sucrose solution was added. After cell cultivation for 3 days under 5% CO2 at 37° C. in an incubator, the fluorescence intensity of GFP was measured using the plate reader (BioTek Japan) and comparison thereof was made (FIG. 1A). Further, the images of typical view fields were taken using the fluorescence microscope (Olympus IX83) (FIG. 1B).

[2] = test system: HEK293 cells
Description: As the first procedure, 4 methods of the addition were carried out, including adding sucrose immediately (5 minutes or less) after the administration of the AAV vector, and the administration of the AAV vector immediately (5 minutes or less) after, 10 minutes after or 1 hour after adding sucrose to cells.
In the same manner as the above-described procedure, the GFP expression level was measured 3 days later.
In the same manner as the above-described procedures, the GFP expression level was measured 3 days later.
AAV3B-CMV-AcGFP was mixed in advance with sucrose at each of various concentrations, and the mixture was allowed to stand at room temperature for 1 hour followed by administration to cells. […] In order to prevent cell damage due to a buffer at the time of dilution of sucrose, medium replacement was carried out using a sucrose solution having the same concentration that was prepared by the medium 3 hours after the administration.

[3] = test system: HepG2 cells; assay: GFP expression in HepG2 cells infected with AAVGT4-CMV-AcGFP in the presence of sucrose; settings: Exp 3, AAVGT4-CMV-AcGFP 5×10^8 vg/well, 3 days
Description: (§3) Three types of AAV vectors (AAV3B, yf2AAV9 and AAVGT4) were used.
as §1, §2
(§4) On a 96 well Optical bottom plate, 5×10^4 cells/well of HepG2 cells were seeded, and 5×10^8 vg/well of AAVGT4-CMV-AcGFP or 5×10^8 vg/well of AAV3B-CMV-AcGFP was added to the medium on the next day. […] To a sucrose (−) control, the medium in the same amount as that of the sucrose solution was added. After cell cultivation for 3 days under 5% CO2 at 37° C. in an incubator, the fluorescence intensity of GFP was measured using the plate reader and comparison thereof was made.

[4] = test system: HepG2 cells; assay: GFP expression in HepG2 cells infected with AAV3B-CMV-AcGFP in the presence of sucrose; settings: Exp 3, AAV3B-CMV-AcGFP 5×10^8 vg/well, 3 days
Description: as §3, §1, §2, §4

[5] = Exp 2, AAV3B 6×10^7 vg/well, iso-osmotic additives: sucrose 125.0, glucose 132.3, mannitol 132.3, NaCl 71.5 mM, 3 days
[6] = Exp 6, sucrose 187 mM, data not shown

OC[C@H]1O[C@@](CO)(O[C@H]2O[C@H](CO)[C@@H](O)[C@H](O)[C@H]2O)[C@@H](O)[C@@H]1O [Sucrose, sucrose]
GFP fluorescence intensity ([1]; sucrose 125 mM final): 321.4
(+)/(−) GFP expression increase ([1]; sucrose 125 mM vs no sucrose): 19.6 times
GFP fluorescence intensity ([2]; Exp 1, AAV3B-CMV-AcGFP 2×10^8 vg/well, sucrose 125 mM final, 3 days): 9257.45
(+)/(−) GFP expression increase ([2]; Exp 1, AAV3B-CMV-AcGFP 2×10^8 vg/well, sucrose 125 mM vs no sucrose, 3 days): 15.4 times
GFP intensity [2, 5]: 1844.8
Relativeness (vs No Additive) [2, 5]: 11 times and 11.2 times
Fluorescence Intensity ([2]; Exp 4A, AAV3B 1×10^8 vg/well, AAV 10 min after sucrose 125 mM, 3 days): 2580.3
Fluorescence Intensity ([2]; Exp 4A, AAV3B 1×10^8 vg/well, AAV 1 hr after sucrose 125 mM, 3 days): 3047
Fluorescence Intensity ([2]; Exp 4A, AAV3B 1×10^8 vg/well, AAV immediately after sucrose 125 mM, 3 days): 2356.2
Fluorescence Intensity ([2]; Exp 4A, AAV3B 1×10^8 vg/well, sucrose 125 mM added immediately after AAV, 3 days): 2500.8
Relativeness (vs Sucrose(−)) ([2]; Exp 4A, AAV 10 min after sucrose 125 mM, 3 days): 10.5
Relativeness (vs Sucrose(−)) ([2]; Exp 4A, AAV 1 hr after sucrose 125 mM, 3 days): 12.4
Relativeness (vs Sucrose(−)) ([2]; Exp 4A, AAV immediately after sucrose 125 mM, 3 days): 9.6
Relativeness (vs Sucrose(−)) ([2]; Exp 4A, sucrose 125 mM added immediately after AAV, 3 days): 10.2
Increase of expression ([2]; Exp 4A, sucrose 125 mM, any of the adding methods, 3 days): about 10 times
Fluorescence Intensity ([2]; Exp 4B, AAV3B 1×10^8 vg/well premixed with sucrose (125 mM final), administered 1 hr after mixing, 3 days): 3049.8
Fluorescence Intensity ([2]; Exp 4B, AAV3B 1×10^8 vg/well premixed with sucrose (125 mM final), administered immediately after mixing, 3 days): 3002.5
Relativeness (vs (−) => (−)) ([2]; Exp 4C, (+) => (+): sucrose from immediately after AAV, 3 days): 4.9 times
Relativeness (vs (−) => (−)) ([2]; Exp 4C, (−) => (+): sucrose added 3 hours later, 3 days): 2.8 times
Fluorescence Intensity ([2]; Exp 4C, AAV3B 1×10^8 vg/well, (+) => (+): sucrose 125 mM from immediately after AAV, 3 days): 534.5
Fluorescence Intensity ([2]; Exp 4C, AAV3B 1×10^8 vg/well, (−) => (+): sucrose 125 mM only from medium replacement 3 h after AAV, 3 days): 309.8
Optimum concentration for expression enhancement ([2]; Exp 6, after 3 days): 150 mM
Fluorescence Intensity ([2]; Exp 6, sucrose 80 mM, AAV3B 1×10^8 vg/well premixed 1 h, 3 days): 1026.0
Relativeness (vs 0 mM) ([2]; Exp 6, sucrose 90 mM, 3 days): 6.4
Fluorescence Intensity ([2]; Exp 6, sucrose 90 mM, AAV3B 1×10^8 vg/well premixed 1 h, 3 days): 1230.5
Relativeness (vs 0 mM) ([2]; Exp 6, sucrose 100 mM, 3 days): 8.1
Fluorescence Intensity ([2]; Exp 6, sucrose 100 mM, AAV3B 1×10^8 vg/well premixed 1 h, 3 days): 1568.3
Relativeness (vs 0 mM) ([2]; Exp 6, sucrose 105 mM, 3 days): 9.2
Fluorescence Intensity ([2]; Exp 6, sucrose 105 mM, AAV3B 1×10^8 vg/well premixed 1 h, 3 days): 1769.3
Relativeness (vs 0 mM) ([2]; Exp 6, sucrose 110 mM, 3 days): 10.1
Fluorescence Intensity ([2]; Exp 6, sucrose 110 mM, AAV3B 1×10^8 vg/well premixed 1 h, 3 days): 1952.3
Relativeness (vs 0 mM) ([2]; Exp 6, sucrose 115 mM, 3 days): 12.2
Fluorescence Intensity ([2]; Exp 6, sucrose 115 mM, AAV3B 1×10^8 vg/well premixed 1 h, 3 days): 2351.3
Relativeness (vs 0 mM) ([2]; Exp 6, sucrose 120 mM, 3 days): 15.3
Fluorescence Intensity ([2]; Exp 6, sucrose 120 mM, AAV3B 1×10^8 vg/well premixed 1 h, 3 days): 2941.0
Relativeness (vs 0 mM) ([2]; Exp 6, sucrose 125 mM, 3 days): 18.8
Fluorescence Intensity ([2]; Exp 6, sucrose 125 mM, AAV3B 1×10^8 vg/well premixed 1 h, 3 days): 3626.8
Relativeness (vs 0 mM) ([2]; Exp 6, sucrose 130 mM, 3 days): 21.1
Fluorescence Intensity ([2]; Exp 6, sucrose 130 mM, AAV3B 1×10^8 vg/well premixed 1 h, 3 days): 4069.0
Relativeness (vs 0 mM) ([2]; Exp 6, sucrose 135 mM, 3 days): 25.0
Fluorescence Intensity ([2]; Exp 6, sucrose 135 mM, AAV3B 1×10^8 vg/well premixed 1 h, 3 days): 4813.3
Relativeness (vs 0 mM) ([2]; Exp 6, sucrose 140 mM, 3 days): 29.2
Fluorescence Intensity ([2]; Exp 6, sucrose 140 mM, AAV3B 1×10^8 vg/well premixed 1 h, 3 days): 5620.5
Fluorescence Intensity ([2]; Exp 6, sucrose 145 mM, AAV3B 1×10^8 vg/well premixed 1 h, 3 days): 5763.8
Fluorescence Intensity ([2]; Exp 6, sucrose 150 mM, AAV3B 1×10^8 vg/well premixed 1 h, 3 days): 6411.8
Fluorescence Intensity ([2]; Exp 6, sucrose 160 mM, AAV3B 1×10^8 vg/well premixed 1 h, 3 days): 5922.5
Cell damage [2, 6]: damaged and detached
Decrease of GFP intensity [2, 6]: about 20%
Fluorescence Intensity ([2]; Exp 8, disaccharide 100 mM in medium, AAV3B 1×10^8 vg/well, Day 3): 1312.7
Relativeness (vs No Sugar) ([2]; Exp 8, disaccharide 100 mM, Day 3): 2.2
Fluorescence Intensity ([2]; Exp 8, disaccharide 125 mM in medium, AAV3B 1×10^8 vg/well, Day 3): 1760.5
Relativeness (vs No Sugar) ([2]; Exp 8, disaccharide 125 mM, Day 3): 2.9
Fluorescence Intensity ([2]; Exp 8, disaccharide 150 mM in medium, AAV3B 1×10^8 vg/well, Day 3): 2979.5
Fluorescence Intensity ([2]; Exp 8, disaccharide 150 mM, AAV3B 1×10^8 vg/well, Day 1): 434.5
Fluorescence Intensity ([2]; Exp 8, disaccharide 150 mM, AAV3B 1×10^8 vg/well, Day 2): 1657.3
Fluorescence Intensity ([2]; Exp 8, disaccharide 150 mM, AAV3B 1×10^8 vg/well, Day 6): 7908.0
Relativeness (vs No Sugar) ([2]; Exp 8, disaccharide 150 mM, Day 3): 4.9
(+)/(−) GFP expression increase ([3]; sucrose 125 mM vs none): 19.1 times
GFP fluorescence intensity ([3]; sucrose 125 mM): 579.8
(+)/(−) GFP expression increase ([4]; sucrose 125 mM vs none): 16.1 times
GFP fluorescence intensity ([4]; sucrose 125 mM): 970.8

— patent US12188040B2, “Method for enhancing gene expression using AAV vector” (priority 2018, dated 2025)
